Data from patent US7994185B2, “Benzene sulfonamide thiazole and oxazole compounds” (Glaxo Smith Kline LLC, priority 2008, dated 2011).
pIC50: −log10 of the molar value. Where a name gives a salt, the structure may show the parent alone. Read-outs that look alike come from different tables or passages of the source.

How the values were obtained:
[1] = tested on: Human melanoma cancer cells (SK-MEL-28); test: Cell growth inhibition assay (CellTiter-Glo), SK-MEL-28; format: cell-based
[2] = molecular target: T1, BRAFV600E full-length (amino acids 2-766) (Homo sapiens, UniProt P15056, V600E); test: B-Raf Accelerated MEK ATPase assay (BRAMA); format: biochemical; conditions: for IC50: Table 1b, read-out: B-Raf pIC50 (converted)
T1 construct: His6-tagged BRAFV600E full-length (amino acids 2-766); His6; made in house; host or cells: baculovirus expression system (insect cells)
T1 sequence (P15056 2-766 V600E): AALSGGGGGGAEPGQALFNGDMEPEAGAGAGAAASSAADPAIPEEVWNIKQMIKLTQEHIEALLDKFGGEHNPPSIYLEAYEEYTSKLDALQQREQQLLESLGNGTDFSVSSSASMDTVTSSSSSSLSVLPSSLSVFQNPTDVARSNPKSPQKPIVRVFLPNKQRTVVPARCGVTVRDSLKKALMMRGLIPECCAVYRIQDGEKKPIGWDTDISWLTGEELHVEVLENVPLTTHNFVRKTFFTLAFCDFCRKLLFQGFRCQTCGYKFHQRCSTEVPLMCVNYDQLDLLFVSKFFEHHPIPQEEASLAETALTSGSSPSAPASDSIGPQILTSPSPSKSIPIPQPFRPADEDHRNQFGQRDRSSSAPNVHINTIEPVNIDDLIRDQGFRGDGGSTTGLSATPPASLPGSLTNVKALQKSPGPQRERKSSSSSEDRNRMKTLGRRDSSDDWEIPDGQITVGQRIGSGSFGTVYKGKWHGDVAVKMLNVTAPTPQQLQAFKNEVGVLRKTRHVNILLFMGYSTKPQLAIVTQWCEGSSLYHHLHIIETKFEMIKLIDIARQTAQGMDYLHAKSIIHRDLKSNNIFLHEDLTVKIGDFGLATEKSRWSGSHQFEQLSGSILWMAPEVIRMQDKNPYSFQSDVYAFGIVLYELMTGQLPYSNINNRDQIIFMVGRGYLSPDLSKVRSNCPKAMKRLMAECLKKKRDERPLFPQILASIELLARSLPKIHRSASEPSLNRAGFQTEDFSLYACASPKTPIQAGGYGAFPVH
Procedure, shortened: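 Coupled-enzyme readout: ADP generated by MEK-mediated ATP hydrolysis, uncoupled from ERK phosphorylation, is linked to NADH oxidation through pyruvate kinase and lactate dehydrogenase.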

[3] = tested on: Human colon tumor cells (Colo205); test: Cell growth inhibition assay (CellTiter-Glo), Colo205; format: cell-based
Procedure, shortened: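 Read-out was CellTiter-Glo luminescence (total ATP as a cell-number surrogate), expressed as % inhibition against DMSO vehicle wells. Before that, cells grown in RPMI/10% FBS were treated for 3 days at 37 °C with ten 1:3-spaced compound concentrations, final DMSO 0.2%.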

[4] = SK-MEL-28, Table 3b, later runs, average for the one or more runs, categorized, read-out: IC50 for SK-MEL-28
[5] = B-Raf pIC50, Table 1b, later runs, average pIC50 for the one or more runs, categorized
[6] = COLO 205, Table 2b, later runs, average for the one or more runs, categorized, read-out: IC50 for Colo205
[7] = SK-MEL-28, 72 h, Table 3a, 3 days incubation, read-out: Activity in SK-MEL-28 Tumor Cells
[8] = B-Raf Activity, Table 1a, highest pIC50 for the one or more runs, categorized
[9] = later runs, average pIC50 for the one or more runs, categorized
[10] = COLO 205, 72 h, Table 2a, 3 days incubation, read-out: Activity in Colo205 Tumor Cells

| Structure (SMILES) | pIC50 [1, 4] | pIC50 [2, 5] | pIC50 [3, 6] | pIC50 [1, 7] | pIC50 [2, 8] | IC50 [2, 9] [nM] | pIC50 [3, 10] | pIC50 [2] |
| --- | --- | --- | --- | --- | --- | --- | --- | --- |
| CC(C)(C)c1nc(-c2cccc(NS(=O)(=O)c3cc(F)ccc3F)c2Cl)c(-c2ccnc(N)n2)s1 [Example 241, N-{3-[5-(2-amino-4-pyrimidinyl)-2-(1,1-dimethylethyl)-1,3-thiazol-4-yl]-2-chlorophenyl}-2,5-difluorobenzenesulfonamide] | > 7.00 | ≥ 8.50 | > 7.00 |  |  |  |  |  |
| CC(C)CNc1nccc(-c2scnc2-c2cccc(NS(=O)(=O)c3c(F)cccc3F)c2)n1 [Example 115, 2,6-Difluoro-N-[3-(5-{2-[(2-methylpropyl)amino]-4-pyrimidinyl}-1,3-thiazol-4-yl)phenyl]benzenesulfonamide] | 5.00 to 6.00 |  | 5.00 to 6.00 | < 6.00 | < 6.00 | 3.16 to 31.6 | < 6.00 |  |
| Cn1ccnc1S(=O)(=O)Nc1cccc(-c2nc(C(C)(C)C)sc2-c2ccnc(N)n2)c1F [Example 287, N-{3-[5-(2-amino-4-pyrimidinyl)-2-(1,1-dimethylethyl)-1,3-thiazol-4-yl]-2-fluorophenyl}-1-methyl-1H-imidazole-2-sulfonamide hydrochloride] | 6.00 to 7.00 |  | 6.00 to 7.00 |  |  | 3.16 to 31.6 |  |  |
| COc1c(NS(=O)(=O)c2c(F)cccc2F)cccc1-c1nc(N2CCOCC2)sc1-c1ccnc(NCC(C)C)n1 [Example 47, 2,6-Difluoro-N-{2-(methyloxy)-3-[5-{2-[(2-methylpropyl)amino]-4-pyrimidinyl}-2-(4-morpholinyl)-1,3-thiazol-4-yl]phenyl}benzenesulfonamide] | 6.00 to 7.00 |  | 6.00 to 7.00 | 6.00 to 7.00 | > 7.00 | 3.16 to 31.6 | 6.00 to 7.00 |  |
| CC(C)c1nc(-c2ccc(F)c(NS(=O)(=O)c3c(F)cccc3F)c2)c(-c2ccnc(NCCCN3CCOCC3)n2)s1 [Example 7, 2,6-Difluoro-N-{2-fluoro-5-[2-(1-methylethyl)-5-(2-{[3-(4-morpholinyl)propyl]amino}-4-pyrimidinyl)-1,3-thiazol-4-yl]phenyl}benzenesulfonamide] | 5.00 to 6.00 | 6.00 to 7.50 | 5.00 to 6.00 | < 6.00 | 6.00 to 7.00 |  | < 6.00 |  |
| CS(=O)(=O)N1CCC(Nc2nccc(-c3sc(N4CCOCC4)nc3-c3cccc(NS(=O)(=O)c4cc(F)ccc4F)c3F)n2)CC1 [Example 82, 2,5-Difluoro-N-{2-fluoro-3-[5-(2-{[1-(methylsulfonyl)-4-piperidinyl]amino}-4-pyrimidinyl)-2-(4-morpholinyl)-1,3-thiazol-4-yl]phenyl}benzenesulfonamide] |  |  |  | > 7.00 |  |  | > 7.00 | > 7.00 |
| CC(C)(C)c1nc(-c2cccc(NS(=O)(=O)c3c(F)cccc3F)c2Cl)c(-c2ccncn2)s1 [Example 237, N-{2-chloro-3-[2-(1,1-dimethylethyl)-5-(4-pyrimidinyl)-1,3-thiazol-4-yl]phenyl}-2,6-difluorobenzenesulfonamide] | > 7.00 |  | > 7.00 |  |  | 3.16 to 31.6 |  |  |
| CC(C)c1nc(-c2cccc(NS(=O)(=O)c3cc(F)ccc3F)c2F)c(-c2ccnc(NCCNC(=O)CO)n2)s1 [Example 192] | > 7.00 | ≥ 8.50 | 6.00 to 7.00 | 6.00 to 7.00 | > 7.00 |  | 6.00 to 7.00 |  |
| Cc1nccc(-c2sc(C(C)(C)C)nc2-c2cccc(NS(=O)(=O)c3ccccc3F)c2F)n1 [Example 225, N-{3-[2-(1,1-dimethylethyl)-5-(2-methyl-4-pyrimidinyl)-1,3-thiazol-4-yl]-2-fluorophenyl}-2-fluorobenzenesulfonamide] | > 7.00 |  | > 7.00 |  |  | 3.16 to 31.6 |  |  |
| CC(C)CNc1nccc(-c2sc(N3CCOCC3)nc2-c2cccc(NS(=O)(=O)c3c(F)cccc3F)c2F)n1 [Example 91, 2,6-Difluoro-N-{2-fluoro-3-[5-{2-[(2-methylpropyl)amino]-4-pyrimidinyl}-2-(4-morpholinyl)-1,3-thiazol-4-yl]phenyl}benzenesulfonamide] | > 7.00 | ≥ 8.50 | > 7.00 | > 7.00 | > 7.00 |  | > 7.00 |  |
| Cc1nccc(-c2sc(N3CCOCC3)nc2-c2cccc(NS(=O)(=O)c3ccoc3)c2F)n1 [Example 272, N-{2-fluoro-3-[5-(2-methyl-4-pyrimidinyl)-2-(4-morpholinyl)-1,3-thiazol-4-yl]phenyl}-3-furansulfonamide] | > 7.00 |  | 6.00 to 7.00 |  |  | 3.16 to 31.6 |  |  |
| CC(C)(C)c1nc(-c2cccc(NS(=O)(=O)c3cc(F)ccc3F)c2F)c(-c2ccnc(NCC(F)F)n2)s1 [Example 177] | 5.00 to 6.00 | ≥ 8.50 | 5.00 to 6.00 | > 7.00 | > 7.00 |  | > 7.00 |  |
| CC(C)(O)CCc1nccc(-c2sc(N3CCOCC3)nc2-c2cccc(NS(=O)(=O)c3cc(F)ccc3F)c2F)n1 [Example 248, 2,5-difluoro-N-{2-fluoro-3-[5-[2-(3-hydroxy-3-methylbutyl)-4-pyrimidinyl]-2-(4-morpholinyl)-1,3-thiazol-4-yl]phenyl}benzenesulfonamide] | > 7.00 |  | > 7.00 |  |  | 3.16 to 31.6 |  |  |
| CC(C)c1nc(-c2ccc(F)c(NS(=O)(=O)c3cc(F)ccc3F)c2)c(-c2ccnc(NC3CCS(=O)(=O)CC3)n2)s1 [Example 205] | 6.00 to 7.00 |  | 6.00 to 7.00 | 6.00 to 7.00 | > 7.00 | 3.16 to 31.6 | 6.00 to 7.00 |  |
| CC(C)c1nc(-c2ccc(F)c(NS(=O)(=O)c3c(F)cccc3F)c2)c(-c2ccnc(NCCN3CCS(=O)(=O)CC3)n2)s1 [Example 175] | 6.00 to 7.00 | 6.00 to 7.50 | 6.00 to 7.00 | 6.00 to 7.00 | > 7.00 |  | 6.00 to 7.00 |  |
| CC(C)(O)CCc1nccc(-c2sc(C(C)(C)C)nc2-c2cccc(NS(=O)(=O)c3c(F)cccc3F)c2F)n1 [Example 249, N-(3-{2-(1,1-dimethylethyl)-5-[2-(3-hydroxy-3-methylbutyl)-4-pyrimidinyl]-1,3-thiazol-4-yl}-2-fluorophenyl)-2,6-difluorobenzenesulfonamide] | > 7.00 |  | > 7.00 |  |  | 3.16 to 31.6 |  |  |
| CC(C)c1nc(-c2ccc(F)c(NS(=O)(=O)c3cc(F)ccc3F)c2)c(-c2ccnc(NCC3CCN(S(C)(=O)=O)CC3)n2)s1 [Example 129] | 6.00 to 7.00 |  | 6.00 to 7.00 | 6.00 to 7.00 | > 7.00 | 3.16 to 31.6 | 6.00 to 7.00 |  |
| CNc1nccc(-c2sc(C(C)C)nc2-c2ccc(F)c(NS(=O)(=O)c3cc(F)ccc3F)c2)n1 [Example 73, 2,5-Difluoro-N-{2-fluoro-5-[5-[2-(methylamino)-4-pyrimidinyl]-2-(1-methylethyl)-1,3-thiazol-4-yl]phenyl}benzenesulfonamide] | 5.00 to 6.00 |  | 5.00 to 6.00 | < 6.00 | > 7.00 | 3.16 to 31.6 | < 6.00 |  |
| CC(=O)N1CCC(Nc2nccc(-c3sc(C(C)C)nc3-c3ccc(F)c(NS(=O)(=O)c4cc(F)ccc4F)c3)n2)CC1 [Example 77, N-{5-[5-{2-[(1-Acetyl-4-piperidinyl)amino]-4-pyrimidinyl}-2-(1-methylethyl)-1,3-thiazol-4-yl]-2-fluorophenyl}-2,5-difluorobenzenesulfonamide] | > 7.00 |  | > 7.00 | > 7.00 | > 7.00 | 3.16 to 31.6 | > 7.00 |  |
| Cc1nccc(-c2sc(N3CCOCC3)nc2-c2cccc(NS(=O)(=O)c3ccoc3)c2Cl)n1 [Example 271, N-{2-chloro-3-[5-(2-methyl-4-pyrimidinyl)-2-(4-morpholinyl)-1,3-thiazol-4-yl]phenyl}-3-furansulfonamide] | > 7.00 |  | 6.00 to 7.00 |  |  | 3.16 to 31.6 |  |  |
| O=S(=O)(Nc1cccc(-c2nc(N3CCOCC3)sc2-c2ccncn2)c1F)c1cc(F)ccc1F [Example 227, 2,5-difluoro-N-{2-fluoro-3-[2-(4-morpholinyl)-5-(4-pyrimidinyl)-1,3-thiazol-4-yl]phenyl}benzenesulfonamide] | > 7.00 | ≥ 8.50 | > 7.00 |  |  |  |  |  |
| CC(C)CNc1nccc(-c2sc(C(C)C)nc2-c2cccc(NS(=O)(=O)c3cccnc3)c2F)n1 [Example 42, N-[2-Fluoro-3-(2-(1-methylethyl)-5-{2-[(2-methylpropyl)amino]-4-pyrimidinyl}-1,3-thiazol-4-yl)phenyl]-3-pyridinesulfonamide] | > 7.00 | ≥ 8.50 | > 7.00 | > 7.00 | > 7.00 |  | > 7.00 |  |
| CC(C)CNc1nccc(-c2sc(C(C)(C)C)nc2-c2cccc(NS(=O)(=O)c3c(F)cccc3F)c2F)n1 [Example 134] | 6.00 to 7.00 |  | 6.00 to 7.00 | 6.00 to 7.00 | > 7.00 | 3.16 to 31.6 | 6.00 to 7.00 |  |
